Assay results as given in patent US7498300B2, “CRFR1 selective ligands” (The Salk Institute for Biological Studies, priority 2001, dated 2009).

Key:
[1] = system: cultured rat pituitary cells; test: In vitro stimulation of ACTH and β-endorphin secretion by cultured rat pituitary cells; format: cell-based
Protocol: (§1) In vivo testing is carried out using the general procedure set forth in C.

[2] = In vivo lowering of blood pressure on peripheral administration; conditions: administered peripherally
Protocol: as §1

[3] = target: T1, human CRFR2 (Homo sapiens, UniProt Q13324); test: Competitive binding assay, CHO cells stably expressing human CRFR2, displacement of [125I-Tyr0]Ucn
T1 construct: expressed in transfected cells
T1 sequence (Q13324 1-411): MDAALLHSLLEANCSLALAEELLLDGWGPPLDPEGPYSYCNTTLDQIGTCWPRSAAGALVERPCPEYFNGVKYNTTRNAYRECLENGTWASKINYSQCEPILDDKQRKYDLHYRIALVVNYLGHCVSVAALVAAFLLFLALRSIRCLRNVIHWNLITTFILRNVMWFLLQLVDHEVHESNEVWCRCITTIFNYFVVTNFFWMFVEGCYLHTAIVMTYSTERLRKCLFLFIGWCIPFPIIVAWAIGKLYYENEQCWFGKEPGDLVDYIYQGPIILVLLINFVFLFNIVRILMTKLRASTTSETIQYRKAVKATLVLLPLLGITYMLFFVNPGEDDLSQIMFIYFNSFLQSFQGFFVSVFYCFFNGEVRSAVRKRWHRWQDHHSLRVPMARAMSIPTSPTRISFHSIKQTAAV
Protocol: The affinities of test peptides for CRFR1 and CRFR2 stably expressed in CHO cells were determined by competitive displacement of ^125I-(Nle^21, Tyr^32) ovine CRF (for CRFR1) or of [^125I-Tyr^o-]Ucn (for CRFR2) as described.

[4] = target: T2, human CRFR1 (Homo sapiens, UniProt P34998); test: Competitive binding assay, CHO cells stably expressing human CRFR1, displacement of 125I-(Nle21,Tyr32) ovine CRF
T2 construct: expressed in transfected cells
T2 sequence (P34998 24-415): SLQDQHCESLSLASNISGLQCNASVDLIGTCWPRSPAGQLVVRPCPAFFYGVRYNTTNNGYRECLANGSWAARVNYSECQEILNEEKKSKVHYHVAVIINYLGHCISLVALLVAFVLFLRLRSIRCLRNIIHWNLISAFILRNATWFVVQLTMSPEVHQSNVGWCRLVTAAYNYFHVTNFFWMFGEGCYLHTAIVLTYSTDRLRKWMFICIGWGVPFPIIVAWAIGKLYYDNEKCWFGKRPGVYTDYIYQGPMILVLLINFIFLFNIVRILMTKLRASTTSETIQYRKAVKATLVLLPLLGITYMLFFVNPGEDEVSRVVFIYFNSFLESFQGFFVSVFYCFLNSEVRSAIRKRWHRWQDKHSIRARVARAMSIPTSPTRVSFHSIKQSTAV
Protocol: Binding affinity is a term used to refer to the strength of interaction between ligand and receptor. […] Ki (inhibitory binding affinity constant) is determined using a “standard” or “tracer” radioactive ligand and thus measures the displacement of the tracer from the receptor or binding protein; it is most properly expressed with reference to such tracer. However, so long as these assays are carefully performed under specific conditions with relatively low concentrations of receptor or the like, the calculated Ki will be substantially the same as its dissociation constant KD. […] It is particularly efficient to test for Ki because only a single tracer need be labelled, e.g. radioiodinated.
Binding assays with cells expressing human CRFR1 are carried out as described in the Chen et al. P.N.A.S., supra. The affinities of test peptides for CRFR1 and CRFR2 stably expressed in CHO cells were determined by competitive displacement of ^125I-(Nle^21, Tyr^32) ovine CRF (for CRFR1) or of [^125I-Tyr^o-]Ucn (for CRFR2) as described.

binding to CRFR2 (in words) [3]	binding to CRFR1 (in words) [4]	Substance	stimulation of the secretion of ACTH and β-END-LI [1]	lowering of blood pressure [2]
only very weakly	binds strongly	(cyclo 31-34)[Ac-Pro^4, CML^19, Nle^21,38, Glu^31, Lys^34]-r/hCRF(4-41) [Example 5 B]	stimulates	very significant lowering of blood pressure
only very weakly	binds strongly	(cyclo 31-34)[Ac-Pro^4, D-Phe^12, CML^14,27, Nle^21,38, Glu^31, Lys^34]-r/hCRF(4-41) [Example 6 A]	stimulates	very significant lowering of blood pressure
only very weakly	binds strongly	(cyclo 31-34)[Ac-Pro^4, D-Phe^12, CML^14, Nle^21,38, Glu^31, Lys^34]-r/hCRF(4-41) [Example 5 A]	stimulates	very significant lowering of blood pressure
only very weakly	binds strongly	(cyclo 31-34)[Ac-Pro^4, D-Phe^12, CML^15, Nle^21,38, Glu^31, Lys^34]-r/hCRF(4-41) [Example 5]	stimulates	very significant lowering of blood pressure
only very weakly	binds strongly	(cyclo 31-34)[Ac-Pro^4, D-Phe^12, CML^17, Nle^21,38, Glu^31, Lys^34]-r/hCRF(4-41) [Example 5 E]	stimulates	very significant lowering of blood pressure
only very weakly	binds strongly	(cyclo 31-34)[Ac-Pro^4, D-Phe^12, CML^18,27, Nle^21,38, Glu^31, Lys^34]-r/hCRF(4-41) [Example 6 B]	stimulates	very significant lowering of blood pressure
only very weakly	binds strongly	(cyclo 31-34)[Ac-Pro^4, D-Phe^12, Nle^14,18,24, Glu^31, Lys^34]-flounder urotensin(4-41) [Example 3 G]	stimulates	very significant lowering of blood pressure
only very weakly	binds strongly	(cyclo 31-34)[Ac-Pro^4, D-Phe^12, Nle^14,18,24, Glu^31, Lys^34]-maggy urotensin(4-41) [Example 3 E]	stimulates	very significant lowering of blood pressure
only very weakly	bind strongly	(cyclo 31-34)[Ac-Pro^4, D-Phe^12, Nle^18,21, Glu^31, Lys^34]-AHC(4-41) [Example 3 A]	strongly stimulates	very significant lowering of blood pressure
only very weakly	binds strongly	(cyclo 31-34)[Ac-Pro^4, D-Phe^12, Nle^18,21, Glu^31, Lys^34]-carp urotensin(4-41) [Example 3 F]	stimulates	very significant lowering of blood pressure
only very weakly	binds strongly	(cyclo 31-34)[Ac-Pro^4, D-Phe^12, Nle^18,21, Glu^31, Lys^34]-sucker urotensin(4-41) [Example 3 B]	stimulates	very significant lowering of blood pressure
only very weakly	binds strongly	(cyclo 31-34)[Ac-Pro^4, D-Phe^12, Nle^21,37,38, Glu^31, Lys^34]-fish CRF(4-41) [Example 3 D]	stimulates	very significant lowering of blood pressure
only very weakly	binds strongly	(cyclo 31-34)[Ac-Pro^4, D-Phe^12, Nle^21,38, CML^27,36, Glu^31, D-His^32, Lys^34]-r/hCRF(4-41) [Example 6 C D-His^32 analog]	stimulates	very significant lowering of blood pressure
only very weakly	binds strongly	(cyclo 31-34)[Ac-Pro^4, D-Phe^12, Nle^21,38, CML^27,36, Glu^31, Lys^34]-r/hCRF(4-41) [Example 6 C]	stimulates	very significant lowering of blood pressure
only very weakly	binds strongly	(cyclo 31-34)[Ac-Pro^4, D-Phe^12, Nle^21,38, CML^27,37, Glu^31, Lys^34]-r/hCRF(4-41) [Example 6 D]	stimulates	very significant lowering of blood pressure
bind only weakly	high affinity	(cyclo 31-34)[Ac-Pro^4, D-Phe^12, Nle^21,38, CML^27,40, Glu^31, Aib^33, Lys^34]-r/hCRF(4-41) [Example 6 G]	stimulates	very significant lowering of blood pressure
bind only weakly	high affinity	(cyclo 31-34)[Ac-Pro^4, D-Phe^12, Nle^21,38, CML^27,40, Glu^31, D-Ala^33, Lys^34]-r/hCRF(4-41) [Example 6 I]	stimulates	very significant lowering of blood pressure
bind only weakly	–	(cyclo 31-34)[Ac-Pro^4, D-Phe^12, Nle^21,38, CML^27,40, Glu^31, D-Ser^33, Lys^34]-r/hCRF(4-41) [Example 6 H]	stimulates	very significant lowering of blood pressure
bind only weakly	high affinity	(cyclo 31-34)[Ac-Pro^4, D-Phe^12, Nle^21,38, CML^27,40, Glu^31, Lys^34]-r/hCRF(4-41) [Example 6 E]	stimulates	very significant lowering of blood pressure
only very weakly	binds strongly	(cyclo 31-34)[Ac-Pro^4, D-Phe^12, Nle^21,38, CML^27,41, Glu^31, Lys^34]-r/hCRF(4-41) [Example 6 F]	stimulates	very significant lowering of blood pressure
